Measured values: PMC10530362, “Light-Sensitive Open Channel Block of Ionotropic Glutamate Receptors by Quaternary Ammonium Azobenzene Derivatives” (International Journal of Molecular Sciences, 2023)

Columns and labels:
[1] = tested on: T1, NMDA receptors (native, hippocampal CA1 pyramidal neurons); test: whole-cell patch clamp, NMDA-evoked steady-state current; format: cell-based, Rattus norvegicus; details: dark (trans), -70 mV, 100 µM NMDA + 10 µM glycine, pH 7.4, 22-24 °C; voltage-dependent foot-in-the-door pore block; unit inferred, µM from context
T1 construct: gene Grin1; native heteromeric receptor in isolated rat CA1 pyramidal neurons

[2] = tested on: T2, calcium-permeable AMPA receptors (native, giant cholinergic interneurons of the striatum); test: whole-cell patch clamp, kainate-evoked current; format: cell-based, Rattus norvegicus; details: dark (trans), -70 mV, 100 µM kainate, pH 7.4, 22-24 °C; open channel pore block plus minor voltage-independent site; unit inferred, µM from context
T2 construct: gene Gria1; native GluA2(R)-lacking receptors in isolated rat striatal giant interneurons

C=CC(=O)Nc1ccc(/N=N/c2ccc(NC(=O)C[N+](CC)(CC)CC)cc2)cc1 [AAQ] was tested. Which IC50 [1] did it give?
The IC50 was 19 ± 1.4 µM.

And the IC50 [2]?
The IC50 was 28.5 ± 1.1 µM.

What does the source list for CC[N+](CC)(CC)CC(=O)Nc1ccc(N=Nc2ccc(NC(=O)C[N+](CC)(CC)CC)cc2)cc1 [QAQ]?
IC50 [1]: 18.6 ± 1 µM; IC50 [2]: 17 ± 2 µM
